Measurements reported in patent US9233095B2, “Small molecule RNase inhibitors and methods of use” (University of Rochester, priority 2011, dated 2016).

What was measured:
S. aureus RnpA = target: T1, S. aureus RnpA (Staphylococcus aureus, UniProt P0A0H5); assay: gel-based RnpA-mediated spa mRNA degradation, inhibitory titration; assay type: biochemical; details: 1 pmol spa mRNA, 20 pmol RnpA, one hour at 37° C.; read-out: IC50 of RnpA-mediated RNA degradation
T1 construct: hexahistidine-tag (N); made in house; host or cells: E. coli BL21 (DE3)
Experimental: Specifically, members of the ActiProbe-25K and Natural Product libraries (29,940 compounds total; TimTec Inc.; Newark, Del.) were screened for small molecule inhibitors of S. aureus RnpA mediated total bacterial RNA degradation. All reactions (50 μl) were performed in 96-well format and contained 20 pmol RnpA, 200 ng S. aureus total RNA, and about 5 μM of each compound in 1× reaction buffer (2 mM NaCl, 2 mM MgCl2, 50 mM Tris-HCl, pH 6.0). Mixtures were incubated at 37° C. for 20 min at which time Quant-iT RiboGreen® (100 μl; Invitrogen) was added to quantify the amount of RNA substrate remaining. Percent enzyme inhibition was calculated as remaining substrate/starting substrate*100. For inhibitory titration assays, 1 pmol of spa mRNA was incubated with 20 pmol RnpA alone (positive control) or in the presence of increasing amounts (0, 25, 50, 100, 125, 150, 200, 250, and 500 μM) RNP1000 for one hour at 37° C. Following this, 20 μl of each reaction mixture were subjected to electrophoresis in a 1.2% formaldehyde-containing agarose gel and visualized by ethidium bromide staining.

B. cereus = assay: CLSI broth microdilution MIC; assay type: cell-based; details: Bacillus cereus; B. cereus Isolate 1
From the text: (§1) In some examples, compounds can be further assayed using the Mueller Hinton (MH) broth antibacterial assay as specified by the Clinical and Laboratory Standards Institute MIC broth microdilution protocol (see Methods for Dilution Antimicrobial Susceptibility Tests for Bacteria That Grow Aerobically; Approved Standard, In The Clinical and Laboratory Standards Institute (CLSI, formerly NCCLS), 7th ed., January 2006, 26 (2), M7-A7; see also Performance Standards for Antimicrobial Susceptibility Testing; Eighteenth Informational Supplement, In The Clinical and Laboratory Standards Institute (CLSI, formerly NCCLS), January 2008, 28 (1), M100-S18).
(§2) With the exception of RN4220-derivatives, in vitro activities of RNPA1000 against bacteria were determined by the broth microdilution method according to the Clinical and Laboratory Standards Institute (CLSI) guidelines using cation adjusted Mueller-Hinton broth or MH broth supplemented with 5% lysed horse blood (for testing Streptotococcus spp.). Microtiter plates containing serial dilutions of RNPA1000 (0, 4, 8, 16, 32, 64, and 128 μg/ml) were inoculated with 10^5 colony forming units (CFU)/ml and incubated for 18 hr at 37° C. […] The MIC value for each S. aureus strain was determined to be the median score of replicate measurements (n=5). Wells containing concentrations of RNPA1000≧MIC were plated for minimal bactericidal measurement. Where possible, experiments with VRSA strains were performed in a laminar flow hood to minimize potential for equipment contamination. For RN4220 cells containing plasmid vector (pCN51), RnpA overproducing plasmid (pRNPA-S) or RnpA underproducing plasmid (pRNPA-A.S.) in vitro antimicrobial activity of RNPA1000 was performed by the microdilution method as described above, except that cells were grown in Tryptic Soy Broth medium supplemented with 2.5 μM CdCl2 and 0, 1, 2, 4, 8, 16, 32, 64, or 128 μg/ml RNPA1000. Time-kill assays were also performed to monitor the antimicrobial properties of RNPA1000 for S. aureus strain UAMS-1 in the absence and presence of 0.25, 0.5, 2, and 4 times the strain's MIC for oxacillin (1 μg/ml), rifampicin (0.5 μg/ml), vancomycin (2 μg/ml), or daptomycin (1 μg/ml). The indicated amount of RNPA1000 and/or commercial antibiotic were added to mid-exponential phase (2×10^8 cfu/ml) S. aureus strain UAMS-1 cells and incubated at 37° C. Aliquots were removed at 0, 2, 4, 8, and 24 hr post-antimicrobial challenge, serial diluted, and plated to enumerate resulting cfu/ml. All time-kill assays were repeated at least 3 times.

S. agalactiae = assay: CLSI broth microdilution MIC; assay type: cell-based; details: Streptococcus agalactiae
From the text: as §1, §2

S. aureus (MRSA) = assay: CLSI broth microdilution MIC; assay type: cell-based; details: Staphylococcus aureus
From the text: as §1, §2

S. aureus (VISA) = assay: CLSI broth microdilution MIC; assay type: cell-based; details: Staphylococcus aureus
From the text: as §1, §2

S. aureus (VRSA) = assay: CLSI broth microdilution MIC; assay type: cell-based; details: Staphylococcus aureus
From the text: as §1, §2

S. bovis = assay: CLSI broth microdilution MIC; assay type: cell-based; details: Salmonella enterica; S. bovis ATCC49147
From the text: as §1, §2

S. epidermidis = assay: CLSI broth microdilution MIC; assay type: cell-based; details: Staphylococcus epidermidis
From the text: as §1, §2

S. pneumoniae (MDR) = assay: CLSI broth microdilution MIC; assay type: cell-based; details: Streptococcus pneumoniae
From the text: as §1, §2

S. pneumoniae = assay: CLSI broth microdilution MIC; assay type: cell-based; details: Streptococcus pneumoniae
From the text: as §1, §2

S. pyogenes = assay: CLSI broth microdilution MIC; assay type: cell-based; details: Streptococcus pyogenes; S. pyogenes Isolate 1
From the text: as §1, §2

S. sanguis = assay: CLSI broth microdilution MIC; assay type: cell-based; details: S. sanguis Isolate 1
From the text: as §1, §2

Cc1cc(/C=C(/C#N)C(=O)Nc2cccc(Br)c2)c(C)n1-c1ccc(C(=O)O)cc1 [RNPA1000]
8 µg/mL: MIC (B. cereus) | MIC (S. epidermidis; S. epidermidis Isolate 2) | MIC (S. epidermidis; S. epidermidis Isolate 3) | MIC (S. epidermidis; S. epidermidis Isolate 4) | MIC (S. epidermidis; S. epidermidis Isolate 5) | MIC (S. pyogenes)
32 µg/mL: MIC (S. agalactiae; S. agalactiae Isolate 2) | MIC (S. agalactiae; S. agalactiae Isolate 3) | MIC (S. agalactiae; S. agalactiae Isolate 4) | MIC (S. aureus (MRSA); MRSA / USA200, strain USA200) | MIC (S. aureus (MRSA); MRSA / USA600, strain USA600) | MIC (S. aureus (MRSA); MRSA / USA700, strain USA700) | MIC (S. aureus (MRSA); MRSA, strain USA900) | MIC (S. aureus (MRSA); MRSA, strain USA1100) | MIC (S. aureus (VISA); NRS 1 / VISA, strain VISA-NRS1) | MIC (S. aureus (VISA); VISA Isolate 4) | MIC (S. aureus (VRSA); strain VRSA-VRS10) | MIC (S. bovis) | MIC (S. pneumoniae (MDR); S. pneumoniae (MDR) Isolate 1) | MIC (S. pneumoniae (MDR); S. pneumoniae (MDR) Isolate 2) | MIC (S. pneumoniae (MDR); S. pneumoniae (MDR) Isolate 4) | MIC (S. pneumoniae; S. pneumoniae Isolate 4)
26 µg/mL: MIC (S. aureus (MRSA); MRSA / USA100, strain USA100)
29 µg/mL: MIC (S. aureus (MRSA); MRSA, strain USA1000)
16 µg/mL: MIC (S. agalactiae; S. agalactiae Isolate 1) | MIC (S. aureus (VISA); NRS 3 / VISA, strain VISA-NRS3) | MIC (S. aureus (VISA); VISA Isolate 3) | MIC (S. aureus (VISA); VISA Isolate 5) | MIC (S. aureus (VRSA); strain VRSA-VRS1) | MIC (S. epidermidis; S. epidermidis Isolate 1) | MIC (S. pneumoniae (MDR); S. pneumoniae (MDR) Isolate 3) | MIC (S. pneumoniae (MDR); S. pneumoniae (MDR) Isolate 5) | MIC (S. pneumoniae; S. pneumoniae Isolate 1) | MIC (S. pneumoniae; S. pneumoniae Isolate 2) | MIC (S. pneumoniae; S. pneumoniae Isolate 3) | MIC (S. pneumoniae; S. pneumoniae Isolate 5) | MIC (S. sanguis)
100 to 125 µM: IC50 (S. aureus RnpA)
23 µg/mL: MIC (S. aureus (MRSA); MRSA / USA300, strain USA300 (USA300-0114)) | MIC (S. aureus (MRSA); MRSA / USA400, strain USA400) | MIC (S. aureus (MRSA); MRSA / USA500, strain USA500) | MIC (S. aureus (MRSA); MRSA / USA800, strain USA800)
